# In ChEMBL document CHEMBL1201862, “PubChem BioAssay data set” (2004):
#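 Test compounds were applied to cells in 96-well plates for 48 hours at 5 doses. Abbreviation: GI50, concentration required for 50% inhibition of growth.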 Calls of active or inactive are those of the source. Rule as the data show it: active = GI50 up to about 1.1 µM and inactive = higher.
# Tests used:
# Assay in all cases: NCI anticancer screen, dose series, 48 h
# Malme-3M = test system: Malme-3M
# OVCAR-3 = test system: OVCAR-3
# NCI/ADR-RES = test system: NCI/ADR-RES
# RXF 393 = test system: RXF 393
# NCI-H522 = test system: NCI-H522
# SK-OV-3 = test system: SK-OV-3
# SN12C = test system: SN12C
# RPMI-8226 = test system: RPMI-8226
# LOX IMVI = test system: LOX IMVI
# SF-295 = test system: SF-295
# PC-3 = test system: PC-3
# BT-549 = test system: BT-549
# MCF7 = test system: MCF7
# HCC 2998 = test system: HCC 2998
# T47D = test system: T47D
# UACC-62 = test system: UACC-62
# HOP-92 = test system: HOP-92
# HCT-116 = test system: HCT-116
# HL-60 = test system: HL-60
# DU-145 = test system: DU-145
SMILES,GI50 (Malme-3M),GI50 (OVCAR-3),GI50 (NCI/ADR-RES),GI50 (RXF 393),GI50 (NCI-H522),GI50 (SK-OV-3),GI50 (SN12C),GI50 (RPMI-8226),GI50 (LOX IMVI),GI50 (SF-295),GI50 (PC-3),GI50 (BT-549),GI50 (MCF7),GI50 (HCC 2998),GI50 (T47D),GI50 (UACC-62),GI50 (HOP-92),GI50 (HCT-116),GI50 (HL-60),GI50 (DU-145)
Cn1c(N=P(c2ccccc2)(c2ccccc2)c2ccccc2)c([N+](=O)[O-])c(=O)n(C)c1=O,> 100 µM (inactive),30.5 µM (inactive),89.9 µM (inactive),> 100 µM (inactive),41.9 µM (inactive),> 100 µM (inactive),56.2 µM (inactive),34 µM (inactive),35.9 µM (inactive),53 µM (inactive),24.7 µM (inactive),38.5 µM (inactive),42.3 µM (inactive),71.8 µM (inactive),33.7 µM (inactive),59.2 µM (inactive),> 100 µM (inactive),36.6 µM (inactive),,
N#Cc1c(N)nc(S)c(C#N)c1-c1ccccc1,> 100 µM (inactive),> 100 µM (inactive),,> 100 µM (inactive),47.3 µM (inactive),,> 100 µM (inactive),> 100 µM (inactive),> 100 µM (inactive),> 100 µM (inactive),> 100 µM (inactive),54 µM (inactive),> 100 µM (inactive),> 100 µM (inactive),> 100 µM (inactive),> 100 µM (inactive),,> 100 µM (inactive),> 100 µM (inactive),> 100 µM (inactive)
CCON1CC(C(=O)OC)=C(O)C1=O,> 100 µM (inactive),> 100 µM (inactive),> 100 µM (inactive),> 100 µM (inactive),> 100 µM (inactive),> 100 µM (inactive),,> 100 µM (inactive),,> 100 µM (inactive),> 100 µM (inactive),> 100 µM (inactive),> 100 µM (inactive),> 100 µM (inactive),> 100 µM (inactive),> 100 µM (inactive),> 100 µM (inactive),> 100 µM (inactive),,> 100 µM (inactive)
Cc1nnc(N/N=C2/C(=O)Nc3ccccc32)nc1O,72.8 µM (inactive),> 100 µM (inactive),> 100 µM (inactive),,> 100 µM (inactive),> 100 µM (inactive),> 100 µM (inactive),> 100 µM (inactive),> 100 µM (inactive),> 100 µM (inactive),> 100 µM (inactive),> 100 µM (inactive),> 100 µM (inactive),,,> 100 µM (inactive),> 100 µM (inactive),> 100 µM (inactive),> 100 µM (inactive),> 100 µM (inactive)
Oc1ccc2ccccc2c1NCn1nc(CCCCCCCCc2nn(CNc3c(O)ccc4ccccc34)c(=S)o2)oc1=S,> 100 µM (inactive),,> 100 µM (inactive),,35.1 µM (inactive),> 100 µM (inactive),> 100 µM (inactive),39.6 µM (inactive),,> 100 µM (inactive),> 100 µM (inactive),> 100 µM (inactive),> 100 µM (inactive),> 100 µM (inactive),,> 100 µM (inactive),> 100 µM (inactive),6.49 µM (inactive),,> 100 µM (inactive)
S=C(N1CCN(c2cccc(Cl)c2)CC1)N1CCN(c2cccc(Cl)c2)CC1,21.2 µM (inactive),47 µM (inactive),> 100 µM (inactive),36.6 µM (inactive),26.9 µM (inactive),> 100 µM (inactive),,34.6 µM (inactive),,39.3 µM (inactive),32.7 µM (inactive),75.3 µM (inactive),37.1 µM (inactive),17.5 µM (inactive),16.9 µM (inactive),83 µM (inactive),,21.2 µM (inactive),,30.3 µM (inactive)
CCOP(=O)(OCC)/C(C#N)=C/c1[nH]cnc1C,> 100 µM (inactive),> 100 µM (inactive),> 100 µM (inactive),> 100 µM (inactive),> 100 µM (inactive),> 100 µM (inactive),> 100 µM (inactive),> 100 µM (inactive),> 100 µM (inactive),> 100 µM (inactive),> 100 µM (inactive),> 100 µM (inactive),> 100 µM (inactive),> 100 µM (inactive),,> 100 µM (inactive),> 100 µM (inactive),> 100 µM (inactive),> 100 µM (inactive),> 100 µM (inactive)
COc1ccc(/C(Cl)=C(\C#N)c2ccc(OC)c(OC)c2)cc1OC,,63.1 µM (inactive),,38.6 µM (inactive),59.8 µM (inactive),,> 100 µM (inactive),15 µM (inactive),> 100 µM (inactive),61.5 µM (inactive),79.1 µM (inactive),57.7 µM (inactive),59 µM (inactive),> 100 µM (inactive),34.4 µM (inactive),42.3 µM (inactive),17.8 µM (inactive),60.1 µM (inactive),15.3 µM (inactive),> 100 µM (inactive)
C/C=C\C(CC(=O)NCC(=O)c1c[nH]c2ccccc12)CC(=O)OC (stereo not drawn),> 100 µM (inactive),> 100 µM (inactive),> 100 µM (inactive),> 100 µM (inactive),> 100 µM (inactive),> 100 µM (inactive),,> 100 µM (inactive),,> 100 µM (inactive),> 100 µM (inactive),> 100 µM (inactive),> 100 µM (inactive),> 100 µM (inactive),> 100 µM (inactive),> 100 µM (inactive),> 100 µM (inactive),> 100 µM (inactive),,> 100 µM (inactive)
Cc1cc2c(c(=O)n1C)SCC2,> 100 µM (inactive),> 100 µM (inactive),> 100 µM (inactive),> 100 µM (inactive),> 100 µM (inactive),> 100 µM (inactive),> 100 µM (inactive),> 100 µM (inactive),> 100 µM (inactive),> 100 µM (inactive),> 100 µM (inactive),> 100 µM (inactive),,> 100 µM (inactive),> 100 µM (inactive),> 100 µM (inactive),> 100 µM (inactive),> 100 µM (inactive),,> 100 µM (inactive)
CC(=O)c1cccc(Nc2nc3ccc(Cl)cc3c3[nH]c4ccccc4c23)c1,4.95 µM (inactive),0.045 µM (active),4.38 µM (inactive),,2.8 µM (inactive),4.15 µM (inactive),13.1 µM (inactive),6.95 µM (inactive),,2.45 µM (inactive),5.86 µM (inactive),64.1 µM (inactive),0.434 µM (active),,6.52 µM (inactive),2.19 µM (inactive),3.48 µM (inactive),3.85 µM (inactive),,4.35 µM (inactive)
Cc1ccc(S(=O)(=O)NC(CCC(=O)NNc2ccccc2)C(=O)NNc2ccccc2)cc1 (stereo not drawn),31.7 µM (inactive),54.6 µM (inactive),> 100 µM (inactive),> 100 µM (inactive),> 100 µM (inactive),> 100 µM (inactive),,5.58 µM (inactive),> 100 µM (inactive),10.4 µM (inactive),4.14 µM (inactive),> 100 µM (inactive),23.1 µM (inactive),,5.47 µM (inactive),2.87 µM (inactive),> 100 µM (inactive),30.7 µM (inactive),> 100 µM (inactive),
COc1ccccc1C(=O)c1c(N2CCCCC2)c(=O)c1=O,> 100 µM (inactive),> 100 µM (inactive),> 100 µM (inactive),> 100 µM (inactive),59.3 µM (inactive),> 100 µM (inactive),> 100 µM (inactive),92.7 µM (inactive),> 100 µM (inactive),> 100 µM (inactive),> 100 µM (inactive),> 100 µM (inactive),> 100 µM (inactive),> 100 µM (inactive),,> 100 µM (inactive),> 100 µM (inactive),> 100 µM (inactive),> 100 µM (inactive),> 100 µM (inactive)
O=C1C(Cl)=C(NCCN2CCOCC2)C(=O)c2ncccc21,1.71 µM (inactive),1.6 µM (inactive),,1.95 µM (inactive),,1.95 µM (inactive),1.73 µM (inactive),,1.01 µM (active),1.82 µM (inactive),2.59 µM (inactive),1.79 µM (inactive),1.66 µM (inactive),1.47 µM (inactive),2.45 µM (inactive),1.33 µM (inactive),2.25 µM (inactive),1.82 µM (inactive),,1.66 µM (inactive)
CN(C(=O)Cc1cccc(N=C=S)c1)[C@H]1CCCC[C@@H]1N1CCCC1,22.4 µM (inactive),14.1 µM (inactive),24.8 µM (inactive),12.9 µM (inactive),12.9 µM (inactive),25.5 µM (inactive),15.2 µM (inactive),10.9 µM (inactive),14.5 µM (inactive),27.6 µM (inactive),15.2 µM (inactive),11 µM (inactive),13 µM (inactive),,11.4 µM (inactive),15.7 µM (inactive),13.8 µM (inactive),13 µM (inactive),,14.6 µM (inactive)
CO[C@H]1SC[C@H](OC(C)=O)[C@H](OC(C)=O)[C@H]1OC(C)=O,> 100 µM (inactive),> 100 µM (inactive),> 100 µM (inactive),,> 100 µM (inactive),,> 100 µM (inactive),> 100 µM (inactive),> 100 µM (inactive),> 100 µM (inactive),,> 100 µM (inactive),> 100 µM (inactive),> 100 µM (inactive),> 100 µM (inactive),93.8 µM (inactive),,> 100 µM (inactive),> 100 µM (inactive),> 100 µM (inactive)
